From ChEMBL document CHEMBL4837229 (Eur J Med Chem, 2021)
Active and inactive are the calls of the source. No cut-off for these calls is given here.

What was measured:
Neuraminidase = Neuraminidase (Influenza A virus, UniProt B4URF0); set-up: species or system Influenza A virus (A/Anhui/1/2005(H5N1))
[1] = Inhibition of Influenza A virus (A/California/04/2009(H1N1)) Neuraminidase using MUNANA as substrate preincubated for 5 to 15 mins followed by substrate addition and measured after 30 mins by fluorescence spectrophotometric method
Influenza A virus [2] = format: functional, organism-based; conditions: A/California/04/2009(H1N1), MDCK, time 46.0 hrs
MDCK = experiment: Cytotoxicity against MDCK cells assessed as reduction in cell viability at 250 uM; format: cell-based, Canis lupus familiaris; conditions: dog
[3] = Stability of the compound in human plasma assessed as parent compound remaining measured immediately; format: ADME, cell-free; conditions: read-out: Stabilty
[4] = Stability of the compound in human plasma assessed as parent compound remaining measured after 10 mins; format: ADME, cell-free; conditions: read-out: Stabilty
[5] = Stability of the compound in human plasma assessed as parent compound remaining measured after 30 mins; format: ADME, cell-free; conditions: read-out: Stabilty
[6] = Stability of the compound in human plasma assessed as parent compound remaining measured after 60 mins; format: ADME, cell-free; conditions: read-out: Stabilty
[7] = Stability of the compound in human plasma assessed as parent compound remaining measured after 120 mins; format: ADME, cell-free; conditions: read-out: Stabilty
in vitro [8] = conditions: mouse, liver microsomes
in vitro [9] = conditions: rat, liver microsomes
in vitro [10] = conditions: human, liver microsomes
Influenza A virus [11] = experiment: microbe, parasite or virus in culture; conditions: A/California/04/2009(H1N1), MDCK, 48 h

Chain of Neuraminidase (B4URF0 whole entry): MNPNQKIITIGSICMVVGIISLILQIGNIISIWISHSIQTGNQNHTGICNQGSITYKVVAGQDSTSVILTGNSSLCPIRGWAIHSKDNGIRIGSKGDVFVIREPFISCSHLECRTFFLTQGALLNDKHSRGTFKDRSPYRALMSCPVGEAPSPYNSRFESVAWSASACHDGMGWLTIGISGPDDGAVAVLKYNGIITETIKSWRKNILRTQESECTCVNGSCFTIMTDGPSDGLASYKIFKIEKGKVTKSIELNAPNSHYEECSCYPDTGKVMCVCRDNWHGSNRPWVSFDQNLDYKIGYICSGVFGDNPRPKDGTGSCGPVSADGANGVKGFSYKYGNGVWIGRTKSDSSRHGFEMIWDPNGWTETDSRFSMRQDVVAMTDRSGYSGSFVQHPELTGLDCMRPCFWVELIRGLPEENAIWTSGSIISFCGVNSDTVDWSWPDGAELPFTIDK

Question: With `CCCCCCCCNNC(=O)N[C@H]1CC(C(=O)O)=C[C@@H](OC(CC)CC)[C@@H]1NC(C)=O` as the molecule, how does the IC50 (Neuraminidase) read?
Answer: Its IC50 is > 10000 nM.

Question: With `CCCCNNC(=O)N[C@H]1CC(C(=O)O)=C[C@@H](OC(CC)CC)[C@@H]1NC(C)=O` as the molecule, how does the IC50 (Neuraminidase) read?
Answer: Its IC50 is 38.3 nM.

Question: What about the IC50 [1] of the same molecule?
Answer: Its IC50 is 332 nM.

Question: For `CCCCCCNNC(=O)N[C@H]1CC(C(=O)O)=C[C@@H](OC(CC)CC)[C@@H]1NC(C)=O`, which IC50 (Neuraminidase) is on record?
Answer: Its IC50 is 4980 nM.

Question: With `CCC(CC)O[C@@H]1C=C(C(=O)O)C[C@H](NC(=O)NNCCCc2ccccc2)[C@H]1NC(C)=O` as the molecule, how does the IC50 (Neuraminidase) read?
Answer: The IC50 was 9150 nM.

Question: What does the source list for `CCC(CC)O[C@@H]1C=C(C(=O)O)C[C@H](NC(=O)NN)[C@H]1NC(C)=O`?
Answer: IC50 (Neuraminidase): 26.8 nM; IC50 [1]: 11.9 nM; Activity (Influenza A virus [2]): inactive; Activity (MDCK): Non-Toxic; remaining at 0 min [3]: 100%; remaining at 10 min [4]: 88.6%; remaining at 0.5 h [5]: 98.8%; remaining at 1 h [6]: 99.5%; remaining at 2 h [7]: 107%; half-life (in vitro [8]): 49.7 min; half-life (in vitro [9]): 45.9 min; half-life (in vitro [10]): 72.9 min; EC50 (Influenza A virus [11]): 7.8 nM

Question: For `CCC(CC)O[C@@H]1C=C(C(=O)O)C[C@H](NC(=O)NNCc2ccccc2)[C@H]1NC(C)=O`, which IC50 (Neuraminidase) is on record?
Answer: The IC50 was 4350 nM.

Question: Which IC50 (Neuraminidase) does the source give for `CCC(CC)O[C@@H]1C=C(C(=O)O)C[C@H](NC(=O)NNCc2cccc(Cl)c2)[C@H]1NC(C)=O` here?
Answer: Its IC50 is 5850 nM.

Question: For `CCNNC(=O)N[C@H]1CC(C(=O)O)=C[C@@H](OC(CC)CC)[C@@H]1NC(C)=O`, which IC50 (Neuraminidase) is on record?
Answer: The IC50 was 576 nM.

Question: With `CCC(CC)O[C@@H]1C=C(C(=O)O)C[C@H](NC(=O)NNCCC(C)C)[C@H]1NC(C)=O` as the molecule, how does the IC50 (Neuraminidase) read?
Answer: The IC50 was 1530 nM.

Question: Which IC50 (Neuraminidase) does the source give for `CCC(CC)O[C@@H]1C=C(C(=O)O)C[C@H](NC(=O)NNCC(C)C)[C@H]1NC(C)=O` here?
Answer: Its IC50 is 2320 nM.

Question: Which IC50 (Neuraminidase) does the source give for `CCC(CC)O[C@@H]1C=C(C(=O)O)C[C@H](NC(=O)NNC/C=C/c2ccccc2)[C@H]1NC(C)=O` here?
Answer: The IC50 was 7850 nM.

Question: For `CCCCCCCNNC(=O)N[C@H]1CC(C(=O)O)=C[C@@H](OC(CC)CC)[C@@H]1NC(C)=O`, which IC50 (Neuraminidase) is on record?
Answer: Its IC50 is 575 nM.

Question: Which IC50 (Neuraminidase) does the source give for `CCCCCNNC(=O)N[C@H]1CC(C(=O)O)=C[C@@H](OC(CC)CC)[C@@H]1NC(C)=O` here?
Answer: The IC50 was 1100 nM.

Question: With `CCC(CC)O[C@@H]1C=C(C(=O)O)C[C@H](NC(=O)NNCC2CC2)[C@H]1NC(C)=O` as the molecule, how does the IC50 (Neuraminidase) read?
Answer: The IC50 was 4110 nM.

Question: With `CCC(CC)O[C@@H]1C=C(C(=O)O)C[C@H](NC(=O)NNCc2cccc(OC)c2)[C@H]1NC(C)=O` as the molecule, how does the IC50 (Neuraminidase) read?
Answer: The IC50 was 326 nM.

Question: With `CCC(CC)O[C@@H]1C=C(C(=O)O)C[C@H](NC(=O)NNCc2ccc(Cl)cc2)[C@H]1NC(C)=O` as the molecule, how does the IC50 (Neuraminidase) read?
Answer: The IC50 was 875 nM.

Question: With `CCC(CC)O[C@@H]1C=C(C(=O)O)C[C@H](NC(=O)NNC2CCOCC2)[C@H]1NC(C)=O` as the molecule, how does the IC50 (Neuraminidase) read?
Answer: The IC50 was 1210 nM.

Question: For `CCC(CC)O[C@@H]1C=C(C(=O)O)C[C@H](N)[C@H]1NC(C)=O` [OSELTAMIVIR CARBOXYLATE], which EC50 (Influenza A virus [11]) is on record?
Answer: Its EC50 is 1.4 nM.

Question: Which IC50 (Neuraminidase) does the source give for `CCC(CC)O[C@@H]1C=C(C(=O)O)C[C@H](NC(=O)NNCc2ccccc2Cl)[C@H]1NC(C)=O` here?
Answer: The IC50 was 586 nM.

Question: For `CCCNNC(=O)N[C@H]1CC(C(=O)O)=C[C@@H](OC(CC)CC)[C@@H]1NC(C)=O`, which IC50 (Neuraminidase) is on record?
Answer: The IC50 was 241 nM.

Question: Which IC50 [1] does the source give for `CCC(CC)O[C@@H]1C=C(C(=O)O)C[C@H](NC(=O)NNC)[C@H]1NC(C)=O` here?
Answer: Its IC50 is 249 nM.

Question: For `CCC(CC)O[C@@H]1C=C(C(=O)O)C[C@H](NC(N)=O)[C@H]1NC(C)=O`, which IC50 (Neuraminidase) is on record?
Answer: Its IC50 is 254 nM.

Question: What about the IC50 [1] of the same molecule?
Answer: The IC50 was 8.7 nM.

Question: Which IC50 (Neuraminidase) does the source give for `CCC(CC)O[C@@H]1C=C(C(=O)O)C[C@H](NC(=O)NNCc2ccccc2OC)[C@H]1NC(C)=O` here?
Answer: Its IC50 is 2760 nM.

Question: For `CCC(CC)O[C@@H]1C=C(C(=O)O)C[C@H](NC(=O)NNCCc2ccccc2)[C@H]1NC(C)=O`, which IC50 (Neuraminidase) is on record?
Answer: The IC50 was 2460 nM.

Question: Which IC50 (Neuraminidase) does the source give for `CCC(CC)O[C@@H]1C=C(C(=O)O)C[C@H](NC(=O)NNCc2ccc(OC)cc2)[C@H]1NC(C)=O` here?
Answer: The IC50 was 567 nM.
